Laboratory results taken from patent publication US20060178307A1, “Modulation of NMDA receptor currents via orexin receptor and/or CRF receptor” (priority 2005, published 2006).
“Also recorded” adds a separate entry of the source. Where no end group is shown, it is not given here.

How the values were obtained:
reinforcement for food = assay: Operant food self-administration, progressive ratio schedule; type: in vivo, rats
Method: After 3-4 weeks of self-administration of cocaine (0.5 mg/infusion) ramping from fixed ratio of 1 lever press (FR1) to receive a reward to a stable fixed ratio of 5 lever presses to receive a reward (FR5) schedule, animals lever pressed for cocaine on a progressive ratio schedule for 4 days. On the second and third day, each animal received a vehicle injection (i.p.), and on the fourth day the animals received an injection (i.p.) of the OXR1 antagonist: SB334867, 10 mg/kg. As a control, orexin modulation of food self-administration was examined under the same paradigm. For food self-administration, animals were trained to an FR5 schedule for food pellets.
This effect of the OXR1 antagonist was not observed with respect to reinforcement for food. Rats were trained to lever press for food on an […] schedule, and subsequently a progressive ratio schedule. Rats were given vehicle on the 2nd and 3rd day of progressive ratio testing and then SB 334867 (10 mg/kg, i.p.) on the 4th day.

locomotor activity = assay: Locomotor sensitization to cocaine, intra-VTA OXR1 antagonist, 7-day paradigm; type: in vivo, Sprague-Dawley rats
Method: Male Sprague-Dawley rats (250 grams) were implanted with bilateral cannulae directed at the VTA (AP, −5.2; ML, ±0.5, DV −8.0). Following recovery from surgery, animals were tested in a cocaine sensitization assay similar to that used for systemic administration of the OXR1 antagonist, but with two changes: a 7-day sensitization paradigm was used, and the OXR1 antagonist SB 334867 was microinjected directly into the VTA (6 μg/hemisphere in 300 nL solution composed of 10% DMSO in water). All other methods for habituation and data collection were identical to that described above. Rats were deeply anesthetized with pentobarbital, and perfused with a 10% formaldehyde solution. Brains were cryoprotected in 25% sucrose, 40 μm coronal sections were cut on a freezing microtome, and sections were mounted, dried and coverslipped. Injection sites were located under a light microscope and recorded on atlas figures adapted from Paxinos and Watson (1997).

NMDAR mEPSCs = NMDAR mEPSCs in Mg2+-free buffer at −40 mV; type: cell-based, rat
Method: To examine changes in number or function of NMDARs after orexin treatment NMDAR mEPSCs were recorded in buffer without Mg^2+, and in the presence CNQX (10 μM), glycine (20 μM) and lidocaine (500 μM). Orexin A (100 nM) caused a significant increase in amplitude in NMDAR mEPSCs 15 min after application (17.1±0.7 pA, n=8, FIG. 7B,D,F) compared to untreated neurons (14.2±0.9 pA, n=8, FIG. 7A,D,F) or at 3-4 hours after orexin A application (13.9±0.5 pA, n=7, FIG. 7C,D,F).
AMPAR mEPSCs were recorded in cells voltage-clamped at −70 mV in lidocaine (500 μM), APV (50 μM) and sucrose (100 mM). NMDAR mEPSCs were recorded at −40 mV in Mg2+-free external solution with lidocaine (500 μM), glycine (20 μM), and CNQX (10 μM). mEPSCs were collected using Clampex (Axon Instruments) and analyzed using Mini Analysis Program (Synaptosoft). Detection criteria were set at >10 pA, <1 ms rise-time, and <3 ms decay-time for AMPAR mEPSCs and >10 pA, <1 ms rise-time, and <10 ms decay-time for NMDAR mEPSCs. mEPSC traces were recorded while sampling every 10 μs, the images were filtered at 5 kHz. Averaged mEPSCs were constructed using Mini Analysis Program (Synaptosoft).

[1] = 10 mg/kg i.p. on 4th day of progressive ratio, n=10

| Compound | breakpoint (food) (reinforcement for food; [1]) | total number of food pellets received (reinforcement for food; [1]) | reinforcement for food (reinforcement for food; 10 mg/kg i.p., hydrochloride) | development of locomotor sensitization to cocaine (locomotor activity; daily intra-VTA 6 μg/hemisphere prior to cocaine 15 mg/kg, 7 days) | mean locomotor distance on day 7 (locomotor activity; intra-VTA OXR1 antagonist 6 μg/hemisphere + cocaine) [cm] | expression of pre-existing cocaine sensitization (locomotor activity; single intra-VTA injection) | frequency of NMDAR mEPSCs (NMDAR mEPSCs; 3-4 hours after orexin A) | NMDAR mEPSC amplitude (NMDAR mEPSCs; 3-4 hours after orexin A, n=7) [pA] | frequency of NMDAR mEPSCs (NMDAR mEPSCs; 15 min after orexin A) | NMDAR mEPSC amplitude (NMDAR mEPSCs; 15 min after orexin A 100 nM, n=8) [pA] |
| --- | --- | --- | --- | --- | --- | --- | --- | --- | --- | --- |
| Cc1nc2ccc(NC(=O)Nc3ccnc4cccnc34)cc2o1.Cl [SB 334867, 1-(2-methylbenzoxazol-6-yl)-3-[1,5]naphthyridin-4-yl urea hydrochloride] | unaltered | not altered | not observed; also recorded: did not alter | abolished | 19274±4559 | did not affect | – | – | – | – |
| orexin A: neuropeptide synthesized in neurons of the LH; orexin receptor agonist selective for the OXR1 receptor (QPLPDCCRQKTCSCRLYELLHGAGNHAAGILTL; ends and bridges not checked; cysteine pairing not given here; UniProt O43612 34-66, looked up) | – | – | – | – | – | – | 2.5±0.4 | 13.9±0.5 | 2.1±0.3 | 17.1±0.7 |
